We go through 5 compounds from ChEMBL document CHEMBL1201862, “PubChem BioAssay data set” (2004).

Structures are written as SMILES.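 Step 1: Grow cells in 96-well plates. Step 2: Expose to compound for 48 hours at 5 concentrations. Step 3: Interpolate endpoints linearly; if unreached, use highest concentration. GI50 marks 50% less growth.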 The source made the active and inactive calls. Rule as the data show it: active = GI50 up to about 1.1 µM and inactive = higher.

What is called GI50 is the concentration that inhibits growth by half.

Some test systems named below: NCI-H460; UO-31; ACHN; RXF 393; SF-268; OVCAR-5; HT-29; CCRF-CEM; HCT-116; SNB-75; DU-145; SNB-19; LOX IMVI; UACC-62; BT-549; MOLT-4; NCI/ADR-RES; MDA-N; A498; OVCAR-3.
Experiment in all cases: DTP human tumour cell line panel, 48 h

As to `CC(=O)N(CCc1ccccc1)C(C#N)c1ccc(OCCCCCCCCCCOc2ccc(C(C#N)N(CCc3ccccc3)C(C)=O)cc2)cc1` (stereo not given), the GI50 is 94.8 µM (inactive) in the test with NCI-H460; 62.2 µM (inactive) in the test with UO-31; 66.4 µM (inactive) with ACHN; 22.6 µM (inactive) in the test with RXF 393; 21.7 µM (inactive) in the test with SF-268; > 100 µM (inactive) with OVCAR-5. The GI50 in the test on HT-29 is > 100 µM (inactive); in the test with CCRF-CEM it was > 100 µM (inactive); in the test with HCT-116, > 100 µM (inactive); in the test on SNB-75, 17.7 µM (inactive); in the test with DU-145, 85.9 µM (inactive); in the test on SNB-19, 20.5 µM (inactive). Besides, the GI50 in the test on LOX IMVI is > 100 µM (inactive); in the test with UACC-62, 62.1 µM (inactive); in the test with BT-549, 33 µM (inactive); in the test with MOLT-4, > 100 µM (inactive); in the test on NCI/ADR-RES, 24.6 µM (inactive); in the test with MDA-N, > 100 µM (inactive). In addition, the figures for the GI50 with A498 and in the test with OVCAR-3 were 31.3 µM (inactive) and > 100 µM (inactive), respectively.

As for `N#Cc1cc2c(n(C3OC(CO)C(O)C(O)C3O)c1=S)CCCCC2` (stereo not given), the GI50 in the test on NCI-H460, in the test with UO-31, in the test with ACHN, in the test on RXF 393, in the test with SF-268 and in the test with OVCAR-5 was > 100 µM (inactive) in each case. In addition, the GI50 in the test on HT-29, in the test on CCRF-CEM, in the test on HCT-116, in the test with SNB-75, in the test with DU-145 and in the test on SNB-19 was > 100 µM (inactive) in each case. The GI50 with LOX IMVI, with UACC-62, with BT-549, with MOLT-4, in the test with NCI/ADR-RES and with MDA-N was > 100 µM (inactive) each time. Further, the GI50 in the test on A498 and with OVCAR-3 was > 100 µM (inactive) throughout.

In the case of `Nn1c(SCC(=O)O)nc2ccccc2c1=O`, the GI50 in the test on NCI-H460, in the test on UO-31, in the test on ACHN, with RXF 393, in the test on SF-268 and with OVCAR-5 was > 100 µM (inactive) in each case. Besides, the GI50 in the test on HT-29, in the test on CCRF-CEM, in the test with HCT-116, in the test on SNB-75, in the test with DU-145 and in the test on SNB-19 was > 100 µM (inactive) each time. For the same compound, the GI50 in the test on LOX IMVI, in the test on UACC-62, in the test with BT-549, with MOLT-4, in the test on NCI/ADR-RES and in the test with MDA-N was > 100 µM (inactive) throughout. Further, the GI50 in the test on A498 and in the test with OVCAR-3 was > 100 µM (inactive) throughout.

With `C[N+](C)([O-])CCCNc1c2ccccc2nc2cccc([N+](=O)[O-])c12`, the GI50 is 0.142 µM (active) in the test with NCI-H460; 1.41 µM (inactive) in the test on UO-31; 0.324 µM (active) in the test with ACHN; 0.163 µM (active) in the test on RXF 393; 0.274 µM (active) in the test on SF-268; 0.355 µM (active) with OVCAR-5. The GI50 with HT-29 is 0.179 µM (active); in the test with CCRF-CEM it was 0.249 µM (active); in the test with HCT-116, 0.228 µM (active); with SNB-75 it was 0.456 µM (active); with DU-145, 0.299 µM (active); with SNB-19, 0.409 µM (active). Also, the GI50 was 0.51 µM (active) in the test on LOX IMVI; 0.219 µM (active) in the test on UACC-62; 0.703 µM (active) in the test with BT-549; 0.142 µM (active) in the test with MOLT-4; 8.2 µM (inactive) with NCI/ADR-RES; 0.173 µM (active) in the test on MDA-N. Besides, the GI50 was 0.164 µM (active) in the test on A498 and 0.308 µM (active) in the test on OVCAR-3.

Consider `COc1ccc(C2C3=C(COC3=O)OC(C)(C)Oc3cc4c(cc32)OCO4)cc1OC` (stereo not given), for which the GI50 in the test with NCI-H460 is 37.1 µM (inactive); in the test with UO-31 it was 47.9 µM (inactive); in the test on ACHN, 51.5 µM (inactive); in the test on RXF 393, 31.5 µM (inactive); in the test with SF-268, 21.1 µM (inactive); in the test on OVCAR-5, > 77.8 µM (inactive). Also, the GI50 in the test on HT-29 was 39.4 µM (inactive); in the test on CCRF-CEM, 37.1 µM (inactive); with HCT-116, 34.6 µM (inactive); with SNB-75, 13.2 µM (inactive); in the test on DU-145, 42.1 µM (inactive); in the test with SNB-19, 44.4 µM (inactive). In addition, the GI50 with LOX IMVI was 40.8 µM (inactive); with UACC-62, 34 µM (inactive); in the test with BT-549, 32.3 µM (inactive); in the test with MOLT-4 it was 34.8 µM (inactive); in the test with NCI/ADR-RES, 19.9 µM (inactive); with MDA-N it was 19.8 µM (inactive). Further, the GI50 was 23.1 µM (inactive) in the test with A498 and 33.2 µM (inactive) in the test on OVCAR-3.
